Source: PubChem BioAssay AID248 (DTP/NCI, 2004)
Where “and” joins values, the source holds several entries; their conditions need not be identical. Equal entries are not always repeated. Inconclusive results and toxic doses are left out. Rule as the data show it: active = T/C of 150% or more; inactive = T/C below 125%.

Test system: L1210 leukemia ip in BDF1 mice, survival T/C
Experiment: NCI In Vivo Anticancer Drug Screen. Data for tumor model L1210 Leukemia (intraperitoneal) in B6D2F1 (BDF1) mice
Conditions: endpoint: mean survival time, higher = longer survival
In short: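 Transplanted-tumor mice were given test agent; controls received vehicle only. Survival readings from the two groups were divided (treated over control).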

[1] = dose: 100.0 mg/kg/injection, schedule: Q01DX001 (ip), vehicle: saline
[2] = dose: 100.0 mg/kg/injection, schedule: Q04DX003 (ip), vehicle: saline
[3] = dose: 200.0 mg/kg/injection, schedule: Q01DX001 (ip), vehicle: saline
[4] = dose: 200.0 mg/kg/injection, schedule: Q04DX003 (ip), vehicle: saline
[5] = dose: 400.0 mg/kg/injection, schedule: Q01DX001 (ip), vehicle: saline
[6] = dose: 400.0 mg/kg/injection, schedule: Q04DX003 (ip), vehicle: saline
[7] = dose: 200.0 mg/kg/injection, schedule: Q01DX009 (ip), vehicle: Klucel (hydroxypropylcellulose) (HPC)
[8] = dose: 100.0 mg/kg/injection, schedule: Q04DX002 (ip), vehicle: Klucel (hydroxypropylcellulose) (HPC)
[9] = dose: 200.0 mg/kg/injection, schedule: Q04DX002 (ip), vehicle: Klucel (hydroxypropylcellulose) (HPC)
[10] = dose: 400.0 mg/kg/injection, schedule: Q04DX002 (ip), vehicle: Klucel (hydroxypropylcellulose) (HPC)
[11] = dose: 100.0 mg/kg/injection, schedule: Q01DX009 (ip), vehicle: Klucel (hydroxypropylcellulose) (HPC)
[12] = dose: 100.0 mg/kg/injection, schedule: Q04DX003 (ip), vehicle: saline with Tween-80
[13] = dose: 400.0 mg/kg/injection, schedule: Q04DX003 (ip), vehicle: saline with Tween-80

Measured: T/C

CCOC(=O)C(N)Cc1ccc(OC)c(N(CCCl)CCCl)c1 (stereo not given)
inactive: dose: 0.21 mg/kg/injection, schedule: Q01DX009 (ip), vehicle: carboxymethylcellulose (CMC) 112 % of control | dose: 0.32 mg/kg/injection, schedule: Q01DX009 (ip), vehicle: carboxymethylcellulose (CMC) 112 % of control | dose: 0.48 mg/kg/injection, schedule: Q01DX009 (ip), vehicle: carboxymethylcellulose (CMC) 122 % of control | dose: 0.75 mg/kg/injection, schedule: Q01DX009 (ip), vehicle: carboxymethylcellulose (CMC) 112 % of control | dose: 1.5 mg/kg/injection, schedule: Q01DX001 (ip), vehicle: carboxymethylcellulose (CMC) 115 % of control | dose: 2.6 mg/kg/injection, schedule: Q01DX001 (ip), vehicle: carboxymethylcellulose (CMC) 119 % of control | dose: 3.0 mg/kg/injection, schedule: Q01DX001 (ip), vehicle: carboxymethylcellulose (CMC) 117 % of control | dose: 3.0 mg/kg/injection, schedule: Q01DX009 (ip), vehicle: carboxymethylcellulose (CMC) 121 % of control | dose: 4.0 mg/kg/injection, schedule: Q01DX009 (ip), vehicle: carboxymethylcellulose (CMC) 120 % of control
active: dose: 1.1 mg/kg/injection, schedule: Q01DX009 (ip), vehicle: carboxymethylcellulose (CMC) 154 % of control | dose: 1.5 mg/kg/injection, schedule: Q01DX009 (ip), vehicle: carboxymethylcellulose (CMC) 155 % of control | dose: 1.7 mg/kg/injection, schedule: Q01DX009 (ip), vehicle: carboxymethylcellulose (CMC) 160 % of control | dose: 2.6 mg/kg/injection, schedule: Q01DX009 (ip), vehicle: carboxymethylcellulose (CMC) 160 % of control | dose: 9.0 mg/kg/injection, schedule: Q01DX001 (ip), vehicle: carboxymethylcellulose (CMC) 164 % of control

O=S(=O)(/C=C\c1ccccc1)N1CCCc2ccccc21
inactive: [1] 106 % of control | [2] 98 % of control | [3] 98 % of control | [4] 102 % of control | [5] 101 % of control | [6] 98 % of control

N#CCCC(=O)c1ccccn1
inactive: [7] 100 % of control | dose: 400.0 mg/kg/injection, schedule: Q01DX009 (ip), vehicle: Klucel (hydroxypropylcellulose) (HPC) 93 % of control

O=C(Cc1ccc([N+](=O)[O-])cc1)NCCc1ccc2c(c1)OCO2
inactive: [1] 96 % of control | [3] 102 % of control | [5] 100 % of control

COc1ccc(OC)c(-n2cccc2C(=O)O)c1
inactive: [8] 90 % of control | [9] 97 % of control | [10] 93 % of control

CSc1nn2c(SC)nnc2s1
inactive: dose: 50.0 mg/kg/injection, schedule: Q01DX001 (ip), vehicle: carboxymethylcellulose (CMC) 104 % of control | dose: 100.0 mg/kg/injection, schedule: Q01DX001 (ip), vehicle: carboxymethylcellulose (CMC) 101 % of control | dose: 200.0 mg/kg/injection, schedule: Q01DX001 (ip), vehicle: carboxymethylcellulose (CMC) 120 % of control

N#C/C(N)=C(\C#N)N=Cc1ccc(-c2ccccc2)cc1
inactive: dose: 100.0 mg/kg/injection, schedule: Q01DX001 (ip), vehicle: saline with Tween-80 97 % of control | dose: 200.0 mg/kg/injection, schedule: Q01DX001 (ip), vehicle: saline with Tween-80 92 % of control | dose: 400.0 mg/kg/injection, schedule: Q01DX001 (ip), vehicle: saline with Tween-80 93 % of control

O=S1(=O)CC(O)C1
inactive: dose: 50.0 mg/kg/injection, schedule: Q01DX001 (ip), vehicle: saline 91 % of control | [1] 100 % of control | [3] 94 % of control | [5] 105 % of control

CNC(=O)c1cc(C(=O)NC)c[n+](Cc2c(Cl)cccc2Cl)c1
inactive: dose: 18.75 mg/kg/injection, schedule: Q01DX009 (ip), vehicle: saline 92 % of control | dose: 37.5 mg/kg/injection, schedule: Q01DX009 (ip), vehicle: saline 103 % of control | dose: 37.5 mg/kg/injection, schedule: Q04DX003 (ip), vehicle: saline 100 % of control | dose: 75.0 mg/kg/injection, schedule: Q01DX001 (ip), vehicle: saline 96 % of control | dose: 75.0 mg/kg/injection, schedule: Q01DX009 (ip), vehicle: saline 100 % of control | dose: 75.0 mg/kg/injection, schedule: Q04DX003 (ip), vehicle: saline 105 % of control | dose: 150.0 mg/kg/injection, schedule: Q01DX001 (ip), vehicle: saline 98 % of control | dose: 150.0 mg/kg/injection, schedule: Q04DX003 (ip), vehicle: saline 97 % of control

Nc1cccc(CC(N)C(=O)O)c1 (stereo not given)
inactive: [2] 100 % of control | [4] 93 % of control | [6] 100 % of control

COc1cccc(Cc2c[nH]c(=S)[nH]c2=O)c1
inactive: [11] 108 % of control | [7] 96 % of control

COc1ccc(Br)cc1CCCO
inactive: [12] 94 % of control | dose: 200.0 mg/kg/injection, schedule: Q04DX003 (ip), vehicle: saline with Tween-80 92 % of control | [13] 95 % of control

O=S(=O)(Nc1ccccc1)c1ccccc1CC(O)(c1ccccc1)c1ccccc1
inactive: dose: 100.0 mg/kg/injection, schedule: Q01DX001 (ip), vehicle: steriod suspending solution 95 % of control | dose: 200.0 mg/kg/injection, schedule: Q01DX001 (ip), vehicle: steriod suspending solution 93 % of control | dose: 400.0 mg/kg/injection, schedule: Q01DX001 (ip), vehicle: steriod suspending solution 87 % of control

CC(C)C1=CC2=CCC3C(C)(C#N)CCCC3(C)C2CC1CC#N (stereo not given)
inactive: [12] 88 % of control | [13] 92 % of control

COc1ccc(Oc2cccc3cnccc23)cc1
inactive: [8] 102 % of control | [9] 91 % of control | [10] 94 % of control

O=C(/C=C(\Br)c1ccccc1)c1ccccc1
inactive: dose: 25.0 mg/kg/injection, schedule: Q01DX005 (ip), vehicle: saline with Tween-80 93 % of control | dose: 25.0 mg/kg/injection, schedule: Q01DX009 (ip), vehicle: saline with Tween-80 88 % of control | dose: 25.0 mg/kg/injection, schedule: Q04DX002 (ip), vehicle: saline with Tween-80 102 % of control | dose: 50.0 mg/kg/injection, schedule: Q01DX005 (ip), vehicle: saline with Tween-80 97 % of control | dose: 50.0 mg/kg/injection, schedule: Q01DX009 (ip), vehicle: saline with Tween-80 98 % of control | dose: 50.0 mg/kg/injection, schedule: Q04DX002 (ip), vehicle: saline with Tween-80 109 % of control | dose: 100.0 mg/kg/injection, schedule: Q01DX005 (ip), vehicle: saline with Tween-80 108 % of control | dose: 100.0 mg/kg/injection, schedule: Q04DX002 (ip), vehicle: saline with Tween-80 91 % of control

Cc1cccc(N/N=C2\CCSc3ccccc32)c1
inactive: dose: 100.0 mg/kg/injection, schedule: Q04DX003 (ip), vehicle: Klucel (hydroxypropylcellulose) (HPC) 95 % of control | dose: 200.0 mg/kg/injection, schedule: Q04DX003 (ip), vehicle: Klucel (hydroxypropylcellulose) (HPC) 98 % of control | dose: 400.0 mg/kg/injection, schedule: Q04DX003 (ip), vehicle: Klucel (hydroxypropylcellulose) (HPC) 104 % of control

CC(CS(=O)(=O)O)N1CCOCC1 (stereo not given)
inactive: dose: 100.0 mg/kg/injection, schedule: Q01DX009 (ip), vehicle: saline 95 % of control | [2] 100 % of control | dose: 200.0 mg/kg/injection, schedule: Q01DX009 (ip), vehicle: saline 98 % of control | [4] 101 % of control | dose: 400.0 mg/kg/injection, schedule: Q01DX009 (ip), vehicle: saline 102 % of control | [6] 97 % of control

CCN(CC)c1ccc(C(=S)c2ccc(N(CC)CC)cc2)cc1
inactive: dose: 100.0 mg/kg/injection, schedule: Q01DX001 (ip), vehicle: other 91 % of control | dose: 200.0 mg/kg/injection, schedule: Q01DX001 (ip), vehicle: other 91 % of control | dose: 400.0 mg/kg/injection, schedule: Q01DX001 (ip), vehicle: other 95 % of control

CCSC1C(OC(C)=O)C(C(COC(C)=O)OC(C)=O)OC1n1cnc2c(Cl)nc(Cl)nc21 (stereo not given)
inactive: dose: 100.0 mg/kg/injection, schedule: Q01DX005 (ip), vehicle: saline 109 % of control | dose: 200.0 mg/kg/injection, schedule: Q01DX005 (ip), vehicle: saline 109 % of control

CCCCNC(=S)N(CCCC)CCCC
inactive: [2] 96 % of control | [4] 103 % of control | [6] 96 % of control

O=C(O)c1cc(Cl)ccn1
inactive: dose: 25.0 mg/kg/injection, schedule: Q01DX009 (ip), vehicle: Klucel (hydroxypropylcellulose) (HPC) 98 % of control | dose: 50.0 mg/kg/injection, schedule: Q01DX009 (ip), vehicle: Klucel (hydroxypropylcellulose) (HPC) 102 % of control | [11] 101 % of control and 107 % of control
